Results taken from ChEMBL document CHEMBL3875222, “Benzenesulfonamide bearing imidazothiadiazole and thiazolotriazole scaffolds as potent tumor associated human carbonic anhydrase IX and XII inhibitors” (Bioorg Med Chem, 2017).
pKi: −log10 of the molar value.

Experiments:
Carbonic anhydrase 2 = Carbonic anhydrase 2 (Homo sapiens, UniProt P00918); assay: Inhibition of recombinant human erythrocyte cytosolic carbonic anhydrase 2 by stopped-flow CO2 hydration assay
Carbonic anhydrase 12 = Carbonic anhydrase 12 (Homo sapiens, UniProt O43570); assay: Inhibition of recombinant human membrane bound carbonic anhydrase 12 by stopped-flow CO2 hydration assay
Carbonic anhydrase 1 = Carbonic anhydrase 1 (Homo sapiens, UniProt P00915); assay: Inhibition of recombinant human erythrocyte cytosolic carbonic anhydrase 1 by stopped-flow CO2 hydration assay
Carbonic anhydrase 9 = Carbonic anhydrase 9 (Homo sapiens, UniProt Q16790); assay: Inhibition of recombinant human membrane bound carbonic anhydrase 9 by stopped-flow CO2 hydration assay

Chain of Carbonic anhydrase 12 (O43570 whole entry): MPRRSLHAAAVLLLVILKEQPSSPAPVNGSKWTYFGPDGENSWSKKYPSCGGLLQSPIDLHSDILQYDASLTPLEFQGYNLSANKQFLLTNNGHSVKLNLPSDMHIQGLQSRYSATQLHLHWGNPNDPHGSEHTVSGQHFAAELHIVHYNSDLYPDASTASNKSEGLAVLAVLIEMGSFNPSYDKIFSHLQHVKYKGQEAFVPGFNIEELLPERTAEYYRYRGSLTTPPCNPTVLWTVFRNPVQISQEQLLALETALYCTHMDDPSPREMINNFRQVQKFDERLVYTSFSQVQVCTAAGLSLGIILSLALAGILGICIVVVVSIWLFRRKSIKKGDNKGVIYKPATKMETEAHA
Chain of Carbonic anhydrase 1 (P00915 whole entry): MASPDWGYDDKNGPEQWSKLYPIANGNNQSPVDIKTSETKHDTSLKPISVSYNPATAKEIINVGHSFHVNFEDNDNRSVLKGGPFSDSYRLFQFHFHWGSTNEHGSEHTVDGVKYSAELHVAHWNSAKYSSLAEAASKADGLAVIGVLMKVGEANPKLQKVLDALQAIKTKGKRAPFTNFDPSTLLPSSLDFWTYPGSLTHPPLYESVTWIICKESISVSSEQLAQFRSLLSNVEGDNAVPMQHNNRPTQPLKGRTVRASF

Row | pKi (Carbonic anhydrase 2) | pKi (Carbonic anhydrase 12) | pKi (Carbonic anhydrase 1) | pKi (Carbonic anhydrase 9) | SMILES
1 | 7.65 | 6.53 | 7.01 | 6.88 | NS(=O)(=O)c1ccc(-c2nc3scc(-c4ccc(-c5ccccc5)cc4)n3n2)cc1
2 | 5.59 | 7.38 | 5.02 | 5.96 | NS(=O)(=O)c1ccc(-c2nc3scc(-c4cccc(Br)c4)n3n2)cc1
3 | 7.71 | 7.62 | 7.10 | 7.07 | Cc1ccc(-c2csc3nc(-c4ccc(S(N)(=O)=O)cc4)nn23)cc1
4 | 6.61 | 7.10 | 6.30 | 5.92 | NS(=O)(=O)c1ccc(-c2nn3cc(-c4ccc(Cl)cc4)nc3s2)cc1
5 | 5.41 | 7.45 | 5.03 | 6.72 | NS(=O)(=O)c1ccc(-c2nc3scc(-c4ccc([N+](=O)[O-])cc4)n3n2)cc1
6 | 6.56 | 7.30 | 6.29 | 6.76 | NS(=O)(=O)c1ccc(-c2nn3cc(-c4cccc([N+](=O)[O-])c4)nc3s2)cc1
7 | 6.52 | 6.44 | 6.18 | 6.63 | NS(=O)(=O)c1ccc(-c2nc3scc(-c4ccc(F)cc4)n3n2)cc1
8 | 6.08 | 8.42 | 6.07 | 5.55 | COc1ccc(-c2cn3nc(-c4ccc(S(N)(=O)=O)cc4)sc3n2)cc1
9 | 7.25 | 7.10 | 6.66 | 6.87 | NS(=O)(=O)c1ccc(-c2nn3cc(-c4ccc(F)cc4)nc3s2)cc1
10 | 6.62 | 8.48 | 6.61 | 6.56 | Cc1ccc(-c2cn3nc(-c4ccc(S(N)(=O)=O)cc4)sc3n2)cc1
11 | 7.88 | 6.44 | 7.19 | 6.69 | NS(=O)(=O)c1ccc(-c2nc3scc(-c4cccc([N+](=O)[O-])c4)n3n2)cc1
12 | 7.17 | 7.12 | 6.56 | 6.60 | NS(=O)(=O)c1ccc(-c2nn3cc(-c4cccc(Br)c4)nc3s2)cc1
13 | 7.82 | 7.65 | 7.08 | 6.83 | COc1ccc(-c2csc3nc(-c4ccc(S(N)(=O)=O)cc4)nn23)cc1
14 | 6.43 | 7.32 | 6.54 | 6.51 | NS(=O)(=O)c1ccc(-c2nn3cc(-c4ccc([N+](=O)[O-])cc4)nc3s2)cc1
15 | 6.43 | 7.21 | 7.45 | 6.84 | NS(=O)(=O)c1ccc(-c2nn3cc(-c4ccc(-c5ccccc5)cc4)nc3s2)cc1
16 | 6.28 | 7.57 | 6.03 | 5.77 | NS(=O)(=O)c1ccc(-c2nc3scc(-c4ccc(Cl)cc4)n3n2)cc1
17 | 5.20 | 6.52 | 5.01 | 6.76 | NS(=O)(=O)c1ccc(-c2nc3scc(-c4ccc(Br)cc4)n3n2)cc1
18 | 8.14 | 8.39 | 6.50 | 6.68 | NS(=O)(=O)c1ccc(-c2nn3cc(-c4ccccc4)nc3s2)cc1
19 | 6.17 | 7.07 | 6.20 | 6.04 | NS(=O)(=O)c1ccc(-c2nn3cc(-c4ccc(Br)cc4)nc3s2)cc1
20 | 7.74 | 6.83 | 7.75 | 6.58 | NS(=O)(=O)c1ccc(-c2nc3scc(-c4ccccc4)n3n2)cc1
